In patent US11358968B2, “Substituted epoxyeicosatrienoic acid (EET) analogs for treatment of kidney disease” (THE MEDICAL COLLEGE OF WISCONSIN, INC., priority 2017, dated 2022):
Entries after “also recorded” stand apart in the source; their conditions may differ. Where two headings read alike, the source gives them in different places.

Experiments:
[1] = earlier filings PCT/US2012/032090, US 9,422,318, US 9,127,027; cited from earlier work
[2] = Acute i.v. infusion in rats; plasma and kidney levels by LC-MS-MS; type: in vivo, rat; settings: for concentration at 6 h: male, Sprague-Dawley, intravenous
Method: For EET analog kidney-targeted delivery, we conjugated an EET analog to folic acid because there is a high concentration of folate receptors in renal tissue. The EET analog was conjugated to folic acid via a PEG-diamine linker. Next, we compared the kidney targeted EET analog, EET-FO1, to a well-studied EET analog, EET-A. EET-A or EET-FO1 was infused i.v. (10 mg/kg/hr) for 6 hours via the rat jugular vein. Plasma and kidney tissue were collected and EET-A or EET-FO1 measured by LC-MS-MS. EET-A plasma level was 1.6 ng/mL, but EET-A was undetectable in the kidney. On the other hand, EET-FO1 was 6.5 ng/mL in plasma and 26.7 ng/mL in kidney tissue. […] Experiments were conducted to compare EET-FO1 and EET-A to decrease cisplatin-induced nephrotoxicity. […] Despite it almost 2×-greater molecular weight compared with EET-A, EET-FO1 was effective in lowering BUN and NAG at 20 mg/kg/d and at a 10-fold lower dose of 2 mg/kg/d.
Acute study: Overnight fasted (12-14 hrs) male SD rats (10 weeks old) were anesthetized with sodium pentobarbital (60 mg/kg, i.p.). After a tracheostomy, the left jugular vein was cannulated to continuously infuse vehicle or EET-A or folate conjugated EET analog at a rate of 6 ml/kg/hr for 6 hours. Plasma and kidney sample were collected at the end of the protocol, snap-frozen in liquid nitrogen and stored at −80° C. until analyzed for LC-MS. EET-A and folate conjugated EET analog solutions were prepared in 0.1% DMSO and 1% PEG-400 in saline.
Mass spectrometric analysis: Plasma and kidney levels of EET-A and folate conjugated EET-A were measured by LC-ESI-MS method. Samples were prepared from 200 μl of plasma or kidney homogenate from EET-A or folate conjugated EET-A treated rats using solid phase extraction with Varian Bond Elut® C18 column (Agilent Technologies, Santa Clara, Calif., USA). The extracted samples were stored at −80° C. before analysis. Samples were warmed to room temperature, dried in a stream of nitrogen and the residue reconstituted in 20 μL of acetonitrile, […]. Components were resolved on a 250 mm×2.0 mm Kromasil C18-column packed with 5 μm diameter particles having 100 Å pores. Gradient elution from 80% A to 10% A was used with elutant flow of 0.2 mL/min. Solvent A was water with 0.01% formic acid and solvent B was acetonitrile with 0.01% formic acid using the following profile: 20% B to 30% B in 10 min, 30% B to 60% B in 17 min, 60% B to 90% B in 28 min, hold at 100% for 7 min, then 7 min re-equilibration. MS/MS analysis was performed on an Agilent 6460 triple quadrupole mass spectrometer equipped with a Jet Stream™ interface. Precursor ion, product ion, collision energy and fragmenter voltage were optimized for each compound in negative polarity. Other parameters were as follows: drying gas flow=10 L/min at 325° C., nebulizer=20 psi, sheath gas flow=11 L/min at 325° C., capillary=3.5 kV, and nozzle=1.0 kV. Results acquired at unit-mass resolution.

WKY rats = assay: Cisplatin-induced nephrotoxicity in WKY rats (chronic study; BUN, NAG, renal histology); type: in vivo, rat; settings: for lowering BUN / lowering NAG: cisplatin-treated WKY rats
Method: For EET analog kidney-targeted delivery, we conjugated an EET analog to folic acid because there is a high concentration of folate receptors in renal tissue. The EET analog was conjugated to folic acid via a PEG-diamine linker. Next, we compared the kidney targeted EET analog, EET-FO1, to a well-studied EET analog, EET-A. EET-A or EET-FO1 was infused i.v. (10 mg/kg/hr) for 6 hours via the rat jugular vein. Plasma and kidney tissue were collected and EET-A or EET-FO1 measured by LC-MS-MS.
Chronic study: In chronic study, male Wistar-Kyoto (WKY) rats weighing 180-200 g (Charles River, Mass., USA) were used. The rats were assigned into […] (n=4 in each group). […] While, rats of groups 2,3,4&5 were pre-treated with vehicle (20% DMSO in PEG-400 v/v), EET analog (EET analog in double distilled water) or novel folate conjugated EET analog F01 at 20 mg/kg and 2 mg/kg doses (prepared in a mixture of 20% DMSO in PEG400), respectively in osmotic mini pump (2 ML, Alzet, Cupertino, C A) for seven days. […] One day before euthanasia, the urine of each rat was collected over a 24-h period. […] A schematic of the protocol is depicted in FIG. 1.
Biochemical analysis:The levels of blood urea nitrogen (BUN) (BioAssay Systems, Hayward, Calif., USA) and the activity of urinary N-acetyl-β-(D)-glucosaminidase (NAG) in the urine was measured by a kit from Diazyme (Diazyme Laboratories, Poway, Calif., USA).

[3] = rat, i.v. infusion 10 mg/kg/hr for 6 hours via jugular vein, LC-MS-MS
[4] = five days following cisplatin 7 mg/kg ip, compared with EET-A 10 mg/kg ip

Row | plasma level [2, 3] | rate of reaching the plasma and the kidney, versus non-folate conjugated form ([2]; acute i.v. study) | plasma level of F01 compared to EET-A ([2]; after 6-hour continuous i.v. administration of equal doses (FIG. 2)) | kidney targeting ([2]; conclusion from plasma and kidney levels after 6 h i.v. infusion) | concentration at 6 h ([2]; kidney, rat, i.v. infusion 10 mg/kg/hr for 6 hours via jugular vein, LC-MS-MS, read-out: level in kidney tissue) | concentration at 6 h ([2]; plasma, rat, i.v. infusion 10 mg/kg/hr for 6 hours via jugular vein, LC-MS-MS, read-out: plasma level) | Compound | oral activity and pharmacokinetic properties [1] | level in kidney tissue [2, 3] | lowering BUN (WKY rats; 2 mg/kg/d) | lowering NAG (WKY rats; 2 mg/kg/d) | lowering BUN (WKY rats; 20 mg/kg/d) | lowering NAG (WKY rats; 20 mg/kg/d) | decreasing BUN (WKY rats; [4]) | decreasing NAG (WKY rats; [4]) | decreasing renal histological injury (WKY rats; [4]) | kidney protective action against cisplatin nephrotoxicity compared to EET-A (from BUN and urinary NAG) (WKY rats; pre-treatment, then 5 days treatment after cisplatin (FIG. 3), listed as F01)
1 |  |  |  |  |  |  | CCCCCCC(=O)N(CCCCCOc1cccc2sc(NC(=O)C(C)(C)C)nc12)C(C)C [EET-B] | orally active with good pharmacokinetic properties |  |  |  |  |  |  |  |  | 
2 | 1.6 ng/mL |  |  |  |  |  | CCCCCNC(=O)NCCCC/C=C\CCCCCCC(=O)N[C@@H](CC(=O)O)C(=O)O [EET-A, reference compound] | orally active with good pharmacokinetic properties | undetectable; also recorded: almost un-detectable |  |  |  |  |  |  |  | 
3 |  | faster rate | 5 fold | targets the kidney | 26.7 ng/mL | 6.5 ng/mL | CCCCCNC(=O)NCCCC/C=C\CCCCCCC(=O)NCCOCCOCCNC(=O)CC[C@H](NC(=O)c1ccc(NCc2cnc3nc(N)[nH]c(=O)c3n2)cc1)C(=O)O [EET-FO1] |  |  | effective | effective | effective | effective | as effective as EET-A | as effective as EET-A | as effective as EET-A | better kidney protective action; also recorded: superior kidney protective action
